Results: US20250352445A1, “COMPOSITIONS FOR SEBUM CONTROL” (Dyson Operations Pte. Ltd., priority 2022, published 2025)

Tested on: Primary sebocytes
Test: Lipid reduction in primary sebocytes, AdipoRed dye, mean fluorescence intensity by flow cytometry
Format: cell-based, human
Conditions: primary sebocytes incubated 3 days, 10 μM for the compound, 31.25 μg/mL for the extract, average of 10,000 cells
Protocol: Primary sebocytes were derived from the forehead of a person. The same cell line was used in all experiments. Flow cytometry experiments were conducted on the BD LSR Fortessa X-20 as follows: Sebocytes stained with a lipid dye (AdipoRed™) were first analyzed according to size and granularity with only single cells selected for AdipoRed™ signal intensity measurement. […] Cells treated with compositions of the invention were compared to vehicle-treated cells to determine the percentage of lipid reduction. […] The cells were washed with PBS buffer [5 mL for a 10 cm culture plate] and then incubated at 37° C. with 0.125% Trypsin-EDTA (Gibco, 15400054) [2 mL of Trypsin for a 10 cm culture plate] for 5-10 minutes. […] When all cells had detached, fixative solution (250 μL; […] The tubes were stored on ice before flow cytometry. Mean fluorescence intensity of the lipid signal can be obtained from the flow cytometer plot which are used to determine the inhibitory effect of the compounds on the sebocytes. The lipid reduction effects of the compositions of the invention were measured against DMSO as a negative control, and against the known lipid-reducing compounds epigallocatechin gallate (EGCG) and salicylic acid (SA) as positive controls. The results are shown in Table 3 and FIGS. 1 to 7.

With `O=C(O[C@@H]1Cc2c(O)cc(O)cc2O[C@@H]1c1cc(O)c(O)c(O)c1)c1cc(O)c(O)c(O)c1` [EGCG, epigallocatechin gallate] the “Percentage Reduction in Mean Fluorescence Intensity (Against DMSO Control)” value was 13.4%.
